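Where inhibition never reached the appropriate level, the endpoint shown equals the highest concentration tested. Otherwise, values were interpolated linearly from a five-concentration, 48-hour dose response in 96-well plates. TGI marks complete inhibition of growth.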
Legend:
Assay in all cases: DTP human tumour cell line panel, 48 h
[1] = tested on: EKVX NSCLC
[2] = tested on: COLO 205 colon
[3] = tested on: IGROV1 ovarian
[4] = tested on: HOP-62 NSCLC
[5] = tested on: BT-549 breast
[6] = tested on: CCRF-CEM leukemia
[7] = tested on: ACHN renal
[8] = tested on: MCF7 breast
[9] = tested on: NCI-H460 lung
[10] = tested on: HCT-116 colon
[11] = tested on: 786-0 renal
[12] = tested on: PC-3 prostate
[13] = tested on: M14 melanoma
[14] = tested on: SN12C renal
[15] = tested on: OVCAR-5 ovarian
[16] = tested on: UO-31 renal
[17] = tested on: CAKI-1 renal
[18] = tested on: HCC-2998 colon
[19] = tested on: U251 CNS
[20] = tested on: MOLT-4 leukemia
[21] = tested on: HL-60(TB) leukemia
[22] = tested on: HT29 colon
[23] = tested on: RXF 393 renal
[24] = tested on: NCI-H226 lung
[25] = tested on: OVCAR-8 ovarian
[26] = tested on: MDA-MB-231 breast
[27] = tested on: SR leukemia
[28] = tested on: SK-MEL-2 melanoma
[29] = tested on: UACC-257 melanoma
[30] = tested on: SNB-19 CNS
[31] = tested on: LOX IMVI melanoma
[32] = tested on: A549 NSCLC
[33] = tested on: SF-295 CNS
[34] = tested on: UACC-62 melanoma
[35] = tested on: T-47D breast
[36] = tested on: SF-539 CNS
[37] = tested on: HCT-15 colon
[38] = tested on: TK-10 renal
[39] = tested on: K-562 leukemia
[40] = tested on: NCI-H23 lung
[41] = tested on: MDA-N
[42] = tested on: DU-145 prostate
[43] = tested on: MDA-MB-435
[44] = tested on: OVCAR-4 ovarian
[45] = tested on: SK-MEL-28 melanoma
[46] = tested on: HS 578T breast
[47] = tested on: OVCAR-3 ovarian
[48] = tested on: SK-MEL-5 melanoma
[49] = tested on: SNB-75 CNS
[50] = tested on: SK-OV-3 ovarian
[51] = tested on: SF-268 CNS
[52] = tested on: HOP-92 NSCLC
[53] = tested on: RPMI-8226 leukemia
[54] = tested on: KM12 colon
[55] = tested on: SW-620 colon
[56] = tested on: A498 renal
[57] = tested on: NCI/ADR-RES ovarian
[58] = tested on: MALME-3M melanoma
[59] = tested on: NCI-H522 lung

SMILES: c1ccc2c(c1)nc1n2CSCC1
- TGI [1]: > 100 µM
- TGI [2]: > 100 µM
- TGI [3]: > 100 µM
- TGI [4]: > 100 µM
- TGI [5]: > 100 µM
- TGI [6]: > 100 µM
- TGI [7]: > 100 µM
- TGI [8]: > 100 µM
- TGI [9]: > 100 µM
- TGI [10]: > 100 µM
- TGI [11]: > 100 µM
- TGI [12]: > 100 µM
- TGI [13]: > 100 µM
- TGI [14]: > 100 µM
- TGI [15]: > 100 µM
- TGI [16]: > 100 µM
- TGI [17]: > 100 µM
- TGI [18]: > 100 µM
- TGI [19]: > 100 µM
- TGI [20]: > 100 µM
- TGI [21]: > 100 µM
- TGI [22]: > 100 µM
- TGI [23]: > 100 µM
- TGI [24]: > 100 µM
- TGI [25]: > 100 µM
- TGI [26]: > 100 µM
- TGI [27]: > 100 µM
- TGI [28]: > 100 µM
- TGI [29]: > 100 µM
- TGI [30]: > 100 µM
- TGI [31]: > 100 µM
- TGI [32]: > 100 µM
- TGI [33]: > 100 µM
- TGI [34]: > 100 µM
- TGI [35]: > 100 µM
- TGI [36]: > 100 µM
- TGI [37]: > 100 µM
- TGI [38]: > 100 µM
- TGI [39]: > 100 µM
- TGI [40]: > 100 µM
- TGI [41]: > 100 µM
- TGI [42]: > 100 µM
- TGI [43]: > 100 µM
- TGI [44]: > 100 µM
- TGI [45]: > 100 µM
- TGI [46]: > 100 µM
- TGI [47]: > 100 µM
- TGI [48]: > 100 µM
- TGI [49]: > 100 µM
- TGI [50]: > 100 µM
- TGI [51]: > 100 µM
- TGI [52]: > 100 µM
- TGI [53]: > 100 µM
- TGI [54]: > 100 µM
- TGI [55]: > 100 µM
- TGI [56]: > 100 µM
- TGI [57]: > 100 µM

SMILES: Cn1c2c(c3ccccc31)CCN=C2C1CCCOC1=O (stereo not given)
- TGI [1]: > 100 µM
- TGI [2]: > 100 µM
- TGI [3]: > 100 µM
- TGI [4]: > 100 µM
- TGI [5]: > 100 µM
- TGI [7]: > 100 µM
- TGI [8]: > 100 µM
- TGI [9]: > 100 µM
- TGI [10]: > 100 µM
- TGI [58]: > 100 µM
- TGI [11]: > 100 µM
- TGI [12]: > 100 µM
- TGI [13]: > 100 µM
- TGI [14]: > 100 µM
- TGI [15]: > 100 µM
- TGI [16]: > 100 µM
- TGI [17]: > 100 µM
- TGI [18]: > 100 µM
- TGI [19]: > 100 µM
- TGI [59]: > 100 µM
- TGI [21]: > 100 µM
- TGI [22]: > 100 µM
- TGI [23]: > 100 µM
- TGI [24]: > 100 µM
- TGI [25]: > 100 µM
- TGI [26]: > 100 µM
- TGI [27]: > 100 µM
- TGI [28]: > 100 µM
- TGI [29]: > 100 µM
- TGI [30]: > 100 µM
- TGI [31]: > 100 µM
- TGI [32]: > 100 µM
- TGI [34]: > 100 µM
- TGI [35]: > 100 µM
- TGI [36]: > 100 µM
- TGI [37]: > 100 µM
- TGI [38]: > 100 µM
- TGI [41]: > 100 µM
- TGI [42]: > 100 µM
- TGI [43]: > 100 µM
- TGI [44]: > 100 µM
- TGI [45]: > 100 µM
- TGI [46]: > 100 µM
- TGI [47]: > 100 µM
- TGI [48]: > 100 µM
- TGI [49]: > 100 µM
- TGI [51]: > 100 µM
- TGI [52]: > 100 µM
- TGI [54]: > 100 µM
- TGI [55]: > 100 µM
- TGI [56]: > 100 µM
- TGI [57]: > 100 µM

SMILES: OC(c1ccc(Cl)cc1)(c1ccc(Cl)cc1)c1cncnc1
- TGI [2]: 35.2 µM
- TGI [4]: 35.3 µM
- TGI [5]: 42 µM
- TGI [6]: 54.1 µM
- TGI [8]: 47.8 µM
- TGI [9]: 36.4 µM
- TGI [10]: 28.6 µM
- TGI [58]: > 100 µM
- TGI [12]: 31.7 µM
- TGI [13]: 32.8 µM
- TGI [14]: 80.3 µM
- TGI [15]: 36.6 µM
- TGI [16]: 31.3 µM
- TGI [17]: 36.2 µM
- TGI [19]: 37.8 µM
- TGI [20]: 52.3 µM
- TGI [22]: 32.1 µM
- TGI [23]: 28.4 µM
- TGI [24]: 42.2 µM
- TGI [25]: 54.8 µM
- TGI [26]: 33.9 µM
- TGI [27]: > 100 µM
- TGI [28]: 32 µM
- TGI [29]: 40.5 µM
- TGI [30]: 48.8 µM
- TGI [31]: > 100 µM
- TGI [33]: 37.2 µM
- TGI [34]: 30.1 µM
- TGI [35]: > 100 µM
- TGI [37]: 39.8 µM
- TGI [38]: 57.5 µM
- TGI [39]: 69.8 µM
- TGI [40]: 61.6 µM
- TGI [41]: 37.7 µM
- TGI [42]: 59.8 µM
- TGI [43]: 36.7 µM
- TGI [44]: 41.5 µM
- TGI [45]: 38 µM
- TGI [46]: 66.6 µM
- TGI [47]: 32.2 µM
- TGI [48]: 27 µM
- TGI [49]: 52.7 µM
- TGI [52]: 31.2 µM
- TGI [53]: 85.3 µM
- TGI [54]: 31.9 µM
- TGI [55]: 55.4 µM
- TGI [56]: 47.6 µM
- TGI [57]: 74.8 µM

SMILES: O=C(/C=C/c1ccc(OCc2ccccc2)cc1)NCc1ccc(C(=O)NCCc2c[nH]c3ccccc23)cc1
- TGI [1]: > 100 µM
- TGI [2]: > 100 µM
- TGI [3]: 56.1 µM
- TGI [4]: 15.6 µM
- TGI [5]: > 100 µM
- TGI [6]: > 100 µM
- TGI [7]: > 100 µM
- TGI [8]: > 100 µM
- TGI [9]: > 100 µM
- TGI [10]: > 100 µM
- TGI [58]: 43.3 µM
- TGI [11]: 16.7 µM
- TGI [12]: 55 µM
- TGI [13]: > 62 µM
- TGI [14]: > 100 µM
- TGI [15]: 69.4 µM
- TGI [16]: > 100 µM
- TGI [17]: 45.4 µM
- TGI [18]: > 100 µM
- TGI [19]: 20.5 µM
- TGI [20]: > 100 µM
- TGI [21]: > 100 µM
- TGI [22]: > 56.6 µM
- TGI [23]: 24.9 µM
- TGI [24]: > 58.8 µM
- TGI [25]: 31.7 µM
- TGI [26]: 61.1 µM
- TGI [27]: > 55.3 µM
- TGI [28]: > 82.6 µM
- TGI [29]: > 100 µM
- TGI [30]: 29.9 µM
- TGI [31]: > 100 µM
- TGI [32]: 87.6 µM
- TGI [33]: 17.2 µM
- TGI [34]: 51.7 µM
- TGI [35]: > 100 µM
- TGI [36]: 11.2 µM
- TGI [37]: > 100 µM
- TGI [38]: > 43 µM
- TGI [39]: > 100 µM
- TGI [40]: 38.8 µM
- TGI [41]: > 100 µM
- TGI [42]: > 100 µM
- TGI [43]: > 100 µM
- TGI [44]: > 48.4 µM
- TGI [45]: > 100 µM
- TGI [46]: 29.9 µM
- TGI [47]: > 100 µM
- TGI [48]: > 58.6 µM
- TGI [49]: 38.1 µM
- TGI [50]: 44.4 µM
- TGI [51]: 52.4 µM
- TGI [52]: 61.1 µM
- TGI [53]: > 100 µM
- TGI [54]: > 100 µM
- TGI [55]: > 100 µM
- TGI [56]: > 100 µM
- TGI [57]: > 100 µM
